Reference: patent publication US10770169B2, “Method of providing a treatment to a subject based on a dynamic pathway map” (THE REGENTS OF THE UNIVERSITY OF CALIFORNIA, priority 2010, dated 2020)
Where two headings read alike, the source gives them in different places.

Test system: panel of 55 breast cancer cell lines
Assay: Cell growth inhibition assay (Cell Titer Glo, 72 h, 9 doses; GI50, TGI, LC50)
Assay type: cell-based, human
Conditions: Homo sapiens, read-out: GI50 (converted)

`NS(=O)(=O)OC[C@@H]1C[C@@H](n2ccc3c(N[C@H]4CCc5ccccc54)ncnc32)C[C@@H]1O` [MLN4924] showed a GI50 (AU565, cell line AU565, censored GI50 values) of 0.182 µM, a GI50 (AU565, cell line AU565) of 0.182 µM and a GI50 (BT-20, cell line BT20, censored GI50 values) of 2.75 µM. It also gave a GI50 (BT-20, cell line BT20) of 2.75 µM, a GI50 (BT-474, cell line BT474, censored GI50 values) of 0.575 µM and a GI50 (BT-474, cell line BT474) of 0.575 µM. The GI50 (BT-483, cell line BT483, censored GI50 values) was 33.1 µM, the GI50 (BT-483, cell line BT483) was 33.1 µM and the GI50 (CAMA-1, cell line CAMA1, censored GI50 values) was 0.0513 µM. For the same compound, the GI50 (CAMA-1, cell line CAMA1) was 0.0513 µM, the GI50 (HCC38, cell line HCC38, censored GI50 values) was 0.0275 µM and the GI50 (HCC38, cell line HCC38) was 0.0275 µM. For the same compound, the GI50 (HCC70, cell line HCC70, censored GI50 values) was 33.1 µM, the GI50 (HCC70, cell line HCC70) was 33.1 µM and the GI50 (HCC1143, cell line HCC1143, censored GI50 values) was 0.245 µM. It also gave a GI50 (HCC1143, cell line HCC1143) of 0.245 µM, a GI50 (HCC1187, cell line HCC1187, censored GI50 values) of 0.501 µM and a GI50 (HCC1187, cell line HCC1187) of 0.501 µM. It also gave a GI50 (HCC1419, cell line HCC1419, censored GI50 values) of 0.0229 µM, a GI50 (HCC1419, cell line HCC1419) of 0.0229 µM and a GI50 (HCC1428, cell line HCC1428, censored GI50 values) of 0.117 µM. The GI50 (HCC1428, cell line HCC1428) was 0.117 µM, the GI50 (HCC1500, cell line HCC1500, censored GI50 values) was 0.0117 µM and the GI50 (HCC1500, cell line HCC1500) was 0.0117 µM. The GI50 (HCC1806, cell line HCC1806, censored GI50 values) was 0.0214 µM, the GI50 (HCC1806, cell line HCC1806) was 0.0214 µM and the GI50 (HCC1937, cell line HCC1937, censored GI50 values) was 2.63 µM. It also gave a GI50 (HCC1937, cell line HCC1937) of 2.63 µM, a GI50 (HCC1954, cell line HCC1954, censored GI50 values) of 4.47 µM and a GI50 (HCC1954, cell line HCC1954) of 4.47 µM. For the same compound, the GI50 (MDA-MB-134-VI, cell line MDAMB134VI, censored GI50 values) was 0.0525 µM, the GI50 (MDA-MB-175-VII, cell line MDAMB175VII, censored GI50 values) was 0.427 µM and the GI50 (MDA-MB-415, cell line MDAMB415, censored GI50 values) was 0.0741 µM. The GI50 (MDA-MB-415, cell line MDAMB415) was 0.0741 µM, the GI50 (MDA-MB-436, cell line MDAMB436, censored GI50 values) was 0.269 µM and the GI50 (MDA-MB-436, cell line MDAMB436) was 0.269 µM. The GI50 (MDA-MB-453, cell line MDAMB453, censored GI50 values) was 2.19 µM, the GI50 (MDA-MB-453, cell line MDAMB453) was 2.19 µM and the GI50 (MDA-MB-468, cell line MDAMB468, censored GI50 values) was 0.204 µM. It also gave a GI50 (MDA-MB-468, cell line MDAMB468) of 0.204 µM, a GI50 (SK-BR-3, cell line SKBR3, censored GI50 values) of 0.151 µM and a GI50 (SK-BR-3, cell line SKBR3) of 0.151 µM. For the same compound, the GI50 (SUM52PE, cell line SUM52PE, censored GI50 values) was 0.398 µM, the GI50 (SUM52PE, cell line SUM52PE) was 0.398 µM and the GI50 (SUM149PT, cell line SUM149PT, censored GI50 values) was 0.191 µM. The GI50 (SUM149PT, cell line SUM149PT) was 0.191 µM, the GI50 (SUM1315MO2, cell line SUM1315MO2, censored GI50 values) was 33.1 µM and the GI50 (SUM-159-PT, cell line SUM159PT, censored GI50 values) was 0.589 µM. The GI50 (SUM-159-PT, cell line SUM159PT) was 0.589 µM, the GI50 (T47D, cell line T47D, censored GI50 values) was 0.117 µM and the GI50 (T47D, cell line T47D) was 0.117 µM. The GI50 (UACC-812, cell line UACC812, censored GI50 values) was 1 µM, the GI50 (UACC-812, cell line UACC812) was 1 µM and the GI50 (ZR-75-1, cell line ZR751, censored GI50 values) was 33.9 µM. It also gave a GI50 (ZR-75-1, cell line ZR751) of 33.9 µM, a GI50 (ZR-75B, cell line ZR75B, censored GI50 values) of 0.145 µM and a GI50 (ZR-75B, cell line ZR75B) of 0.145 µM. The GI50 (cell line 600MPE, censored GI50 values) was 0.372 µM, the GI50 (cell line 600MPE) was 0.372 µM and the GI50 (cell line HCC2185, censored GI50 values) was 0.372 µM. It also gave a GI50 (cell line HCC2185) of 0.372 µM, a GI50 (cell line HCC3153, censored GI50 values) of 0.229 µM and a GI50 (cell line HCC3153) of 0.229 µM. For the same compound, the GI50 (cell line LY2, censored GI50 values) was 0.158 µM, the GI50 (cell line LY2) was 0.158 µM and the GI50 (cell line MDAMB134V) was 0.0525 µM. For the same compound, the GI50 (cell line MDAMB175V) was 0.427 µM and the GI50 (cell line SUM1315MO) was 33.1 µM.

`CN(Cc1cnc2nc(N)nc(N)c2n1)c1ccc(C(=O)N[C@@H](CCC(=O)O)C(=O)O)cc1` [Methotrexate] gave a GI50 (600MPE cell line, censored GI50 values) of 166 µM, a GI50 (AU565, AU565 cell line, censored GI50 values) of 166 µM and a GI50 (AU565, cell line AU565) of 166 µM. The GI50 (BT-20, cell line BT20) was 331 µM, the GI50 (BT-474, cell line BT474) was 331 µM and the GI50 (BT-549, cell line BT549) was 331 µM. The GI50 (CAMA-1, CAMA1 cell line, censored GI50 values) was 0.0794 µM, the GI50 (CAMA-1, cell line CAMA1) was 0.0794 µM and the GI50 (HCC38, cell line HCC38) was 331 µM. It also gave a GI50 (HCC202, cell line HCC202) of 0.0204 µM, a GI50 (HCC1143, HCC1143 cell line, censored GI50 values) of 0.024 µM and a GI50 (HCC1143, cell line HCC1143) of 0.024 µM. The GI50 (HCC1187, HCC1187 cell line, censored GI50 values) was 166 µM, the GI50 (HCC1187, cell line HCC1187) was 166 µM and the GI50 (HCC1395, cell line HCC1395) was 331 µM. It also gave a GI50 (HCC1419, HCC1419 cell line, censored GI50 values) of 166 µM, a GI50 (HCC1419, cell line HCC1419) of 166 µM and a GI50 (HCC1428, cell line HCC1428) of 331 µM. For the same compound, the GI50 (HCC1500, HCC1500 cell line, censored GI50 values) was 0.0309 µM, the GI50 (HCC1500, cell line HCC1500) was 0.0309 µM and the GI50 (HCC1806, HCC1806 cell line, censored GI50 values) was 166 µM. For the same compound, the GI50 (HCC1806, cell line HCC1806) was 166 µM, the GI50 (HCC1937, cell line HCC1937) was 331 µM and the GI50 (HCC1954, HCC1954 cell line, censored GI50 values) was 0.0155 µM. It also gave a GI50 (HCC1954, cell line HCC1954) of 0.0155 µM, a GI50 (MCF7, cell line MCF7) of 0.0575 µM and a GI50 (MDA-MB-157, cell line MDAMB157) of 166 µM. It also gave a GI50 (MDA-MB-231, cell line MDAMB231) of 331 µM, a GI50 (MDA-MB-361, cell line MDAMB361) of 0.158 µM and a GI50 (MDA-MB-415, cell line MDAMB415) of 331 µM. For the same compound, the GI50 (MDA-MB-436, cell line MDAMB436) was 0.02 µM, the GI50 (MDA-MB-453, cell line MDAMB453) was 331 µM and the GI50 (MDA-MB-468, cell line MDAMB468) was 0.0324 µM. The GI50 (SK-BR-3, cell line SKBR3) was 0.692 µM, the GI50 (SUM52PE, cell line SUM52PE) was 331 µM and the GI50 (SUM149PT, cell line SUM149PT) was 331 µM. The GI50 (SUM185PE, cell line SUM185PE) was 331 µM, the GI50 (SUM225CWN, cell line SUM225CWN) was 331 µM and the GI50 (SUM-159-PT, cell line SUM159PT) was 331 µM. For the same compound, the GI50 (ZR-75-1, cell line ZR751) was 0.0661 µM, the GI50 (ZR-75B, cell line ZR75B) was 331 µM and the GI50 (cell line 600MPE) was 166 µM. It also gave a GI50 (cell line HCC2185) of 331 µM, a GI50 (cell line LY2) of 0.0339 µM and a GI50 (cell line MDAMB134V) of 331 µM. It also gave a GI50 (cell line SUM1315MO) of 331 µM.
